Laboratory results reported in patent publication US20210087238A1, “CELL PENETRATING PEPTIDES AND RELATED COMPOSITIONS AND METHODS” (Phylogica Limited, priority 2017, published 2021).

Columns and labels:
[1] = system: CHO-K1 cells stably-expressing EGFR receptor; assay: Bouganin assay: FPP_SpyT conjugated to EGFRAffibody_Bouganin_SpyC toxin, matched CHO-K1 lines (±hEGFR); assay type: cell-based; settings: 100 nM toxin; 48 h; CHO-K1 EGFR vs CHO-K1
Experimental: FIG. 9 FPP compatibility with receptor binding delivery (RBD)-mediated delivery and half-life extension by PASylation. (A) a plot showing percent viability of CHO-K1 cells stably-expressing EGFR receptor or (B) CHO-K1 cells were treated with FPP_SpyT conjugated to EGFRAffybody_Bouganin SpyC (EGRFAffbd_Boug_SpyC) toxin. After 48 h incubation cell viability was assessed by resazurin reduction potential. […] Results are representative of 3 independent experiments. Error bars represent standard deviation from the mean of duplicate samples. **P<0.01, ***P<0.001 by one-way ANOVA with Dunnett's multiple comparison test. (C) T47D cells were treated with FPP_PAP_linker_SpyT with and without conjugation to PAS_SpyC recombinant protein. […] Linkers are Cathepsin B FKFL cleavage motif (BF), Cathepsin B Valine-Citrulline cleavage motif (Ba) and Furin RKKR cleavage motif (Fur). Results are representative of 2 independent experiments. Error bars represent standard deviation from the mean of duplicate samples.
All assays followed manufacturer's instructions.

CHO-K1 cells = assay: β-Lactamase (BLA) bioassay, CCF2-AM cleavage by flow cytometry; assay type: cell-based; settings: SpyC-BLA/CPP-SpyT conjugates; comparator TAT-SpyTag conjugate
Experimental: CHO-K1 cells (seeded at 1×10^5 cells/well in 24-well plates) were incubated with purified SpyC_BLA (SEQ ID NO:90) and SpyC_BLA_FPP1.1 (SEQ ID NO:91) proteins at […]/5% CO2 for 2 hours. Cells were washed, detached by 5 mins incubation with trypsin, washed, loaded with the β-lactamase substrate CCF2-AM and analysed by Flow Cytometry; intracellular β-lactamase activity caused an emission shift from 510 nm to 450 nm. The percentages of β-lactamase positive cells for each sample were graphed against the concentration of protein added to the cells. […]
β-Lactamase is a bacterial enzyme that catalyses the opening of β-lactam rings. […] To address this need, β-Lactamase was expressed as C-terminal SpyC fusion, making SpyC-BLA (SEQ ID NO:90). […]
CCF2-AM (Thermofisher Scientific, Australia) is a Fluorescence Resonance Energy Transfer (FRET) substrate that is enzymatically cleaved by β-Lactamase. […] In the presence of β-Lactamase, the fluorescein moiety of CCF2 is enzymatically cleaved, resulting in the emission wavelength shifting to 447 nm (blue). β-Lactamase activity is quantified by measuring the ratio of blue fluorescence to green fluorescence.
The cell-penetrating and endosomal escape ability of FPP1.1 (SEQ ID NO:39) and sequence variant SpyC-BLA/CCP-SpyT conjugates was assessed by flow cytometry to determine cytosolic CCF2-AM cleavage by internalized β-Lactamase. […]

KTQEKKKKQPPKPKKPKTQEKKKKQPPKPKR (Amino acid sequence of a Sindbis virus capsid-derived CPP (del1746)) [FPP1-del]
delivery of EGFRAffbd_Boug_SpyC toxin, cell viability [1]: significantly improved delivery compared to RBD alone but retains RBD encoded specificity

PKKPKTQEKKKKQPPK (Amino acid sequence of a Sindbis virus capsid-derived CPP (SAR1)) [FPP1-SAR1]
delivery of BLA to the cytosol (CHO-K1 cells): ineffective in delivering BLA
